In US20260159536A1, “AKR1C3-ACTIVATED DNA ALKYLATING AGENT, AND MEDICAL APPLICATION THEREOF” (ASCENTAWITS PHARMACEUTICALS, LTD., priority 2021, published 2026):
Values joined by “and” are separate entries in the source; they are usually repeats but may differ in a detail not shown here. Equal entries are not always repeated. Where two headings read alike, the source gives them in different places.

Experiments:
[1] = Blood-brain barrier assay of Compound A (plasma and brain concentration, PK); assay type: in vivo, CD-1 mice; settings: for concentration at 0.083 h / concentration at 0.25 h / concentration at 1 h / concentration at 2 h / concentration at 4 h / concentration at 8 h / Kp at 0.083 h / Kp at 0.25 h / Kp at 1 h / Kp at 2 h / Kp at 4 h / Kp at 8 h / Brain concentration / Plasma concentration / Ratio (Brain/Plasma): IV 1 mg/kg; for MRT inf: read-out: MRTInf_obs; for half-life: read-out: T½ (converted)
Procedure: Three CD-1 mice were administered 1 mg/kg of the test Compound A intravenously at each time point. Blood and brain tissue were taken at 5 min, 15 min, 1 h, 2 h, 4 h and 8 h after administration.
The PK (Pharmacokinetic) parameters obtained from the above assays were listed as follows, as shown in Table 33 and Table 34. • PK parameters, pharmacokinetic parameters. • T1/2, half-life. • Cl-obs, plasma clearance. • C0, starting concentration. • AUClast, area under the concentration-time curve from start of administration time to the last point. • AUCInf, area under the concentration-time curve from start of administration to the time at infinity. • Tmax, time to maximum observed plasma concentration. • Cmax, concentration to maximum observed plasma concentration. • MRTlnf-obs, represents the mean residence time from the start of administration to the time of theoretical extrapolation to infinity. • AUClnf Ration (Brain/Plasma), the ratio of the area under the concentration-time curve of serum and brain tissue from the start of administration to the time at infinity. • Unit, unit. • Mean, average value.

[2] = system: human lung cancer NCI-H460 cells; experiment: In vivo pharmacodynamics, NCI-H460 subcutaneous xenograft model; parameters: species or system BALB/c nude mice; settings: for Tumor volume: 5 mg/kg i.v.
[3] = CD-1, mouse, iv, brain tissues, 1 mg/kg intravenously, Mean
[4] = CD-1, mouse, iv, plasma, 1 mg/kg intravenously, Mean
[5] = 0.083 h, individual animals, 1 mg/kg
[6] = 0.25 h, individual animals, 1 mg/kg
[7] = 1 h, individual animals, 1 mg/kg
[8] = 2 h, individual animals, 1 mg/kg
[9] = 4 h, individual animals, 1 mg/kg
[10] = 8 h, individual animals, 1 mg/kg
[11] = brain tissues, 1 mg/kg intravenously, Mean
[12] = plasma, 1 mg/kg intravenously, Mean

What does the source list for `O=[N+]([O-])c1ccc(C(OP(=O)(N2CC2)N2CC2)C(F)(F)F)cc1Oc1ccc(-c2ccc(F)cc2)c(F)c1` (racemic) [Compound A]?
blood-brain barrier penetration ([1]; 1 mg/kg intravenously, within 8 hours): can effectively penetrate the blood-brain barrier; concentration at 0.083 h ([1]; CD-1, mouse, brain, iv, 1 mg/kg, 0.083 h, individual animals, read-out: Brain concentration): 538 ng/g; concentration at 0.25 h ([1]; CD-1, mouse, brain, iv, 1 mg/kg, 0.25 h, individual animals, read-out: Brain concentration): 419 ng/g; concentration at 1 h ([1]; CD-1, mouse, brain, iv, 1 mg/kg, 1 h, individual animals, read-out: Brain concentration): 180 ng/g; concentration at 2 h ([1]; CD-1, mouse, brain, iv, 1 mg/kg, 2 h, individual animals, read-out: Brain concentration): 107 ng/g; concentration at 4 h ([1]; CD-1, mouse, brain, iv, 1 mg/kg, 4 h, individual animals, read-out: Brain concentration): 71.2 ng/g; concentration at 8 h ([1]; CD-1, mouse, brain, iv, 1 mg/kg, 8 h, individual animals, read-out: Brain concentration): 23.6 ng/g; Kp ([1]; CD-1, mouse, brain/plasma, iv, 1 mg/kg, 1 mg/kg intravenously, Mean, read-out: AUCInf Ratio (Brain/Plasma)): 0.8; Kp at 0.083 h ([1]; CD-1, mouse, brain/plasma, iv, 1 mg/kg, 0.083 h, individual animals, read-out: Ratio (Brain/Plasma)): 1.17; Kp at 0.083 h ([1]; CD-1, mouse, brain/plasma, iv, 1 mg/kg, 0.083 h, mean of 3 animals, read-out: Ratio (Brain/Plasma), Mean): 1.28; Kp at 0.25 h ([1]; CD-1, mouse, brain/plasma, iv, 1 mg/kg, 0.25 h, individual animals, read-out: Ratio (Brain/Plasma)): 1.13; Kp at 0.25 h ([1]; CD-1, mouse, brain/plasma, iv, 1 mg/kg, 0.25 h, mean of 3 animals, read-out: Ratio (Brain/Plasma), Mean): 1.15; Kp at 1 h ([1]; CD-1, mouse, brain/plasma, iv, 1 mg/kg, 1 h, individual animals, read-out: Ratio (Brain/Plasma)): 0.8; Kp at 1 h ([1]; CD-1, mouse, brain/plasma, iv, 1 mg/kg, 1 h, mean of 3 animals, read-out: Ratio (Brain/Plasma), Mean): 0.76; Kp at 2 h ([1]; CD-1, mouse, brain/plasma, iv, 1 mg/kg, 2 h, individual animals, read-out: Ratio (Brain/Plasma)): 0.71; Kp at 2 h ([1]; CD-1, mouse, brain/plasma, iv, 1 mg/kg, 2 h, mean of 3 animals, read-out: Ratio (Brain/Plasma), Mean): 0.67; Kp at 4 h ([1]; CD-1, mouse, brain/plasma, iv, 1 mg/kg, 4 h, individual animals, read-out: Ratio (Brain/Plasma)): 0.74; Kp at 4 h ([1]; CD-1, mouse, brain/plasma, iv, 1 mg/kg, 4 h, mean of 3 animals, read-out: Ratio (Brain/Plasma), Mean): 0.78; Kp at 8 h ([1]; CD-1, mouse, brain/plasma, iv, 1 mg/kg, 8 h, individual animals, read-out: Ratio (Brain/Plasma)): 0.48; Kp at 8 h ([1]; CD-1, mouse, brain/plasma, iv, 1 mg/kg, 8 h, mean of 3 animals, read-out: Ratio (Brain/Plasma), Mean): 0.52; Cmax [1, 3]: 543 ng/g; Tmax [1, 3]: 4.8 min; MRT inf [1, 3]: 2.99 h; half-life [1, 3]: 2.8 h; AUC(0-inf) [1, 4]: 1200 ng·h/mL; AUC(0-t) [1, 4]: 980 ng·h/mL; C0 [1, 4]: 453 ng/mL; MRT inf [1, 4]: 4.37 h; half-life [1, 4]: 3.64 h; concentration at 0.083 h ([1]; CD-1, mouse, plasma, iv, 1 mg/kg, 0.083 h, individual animals, read-out: Plasma concentration): 460 ng/mL; concentration at 0.25 h ([1]; CD-1, mouse, plasma, iv, 1 mg/kg, 0.25 h, individual animals, read-out: Plasma concentration): 372 ng/mL; concentration at 1 h ([1]; CD-1, mouse, plasma, iv, 1 mg/kg, 1 h, individual animals, read-out: Plasma concentration): 229 ng/mL; concentration at 2 h ([1]; CD-1, mouse, plasma, iv, 1 mg/kg, 2 h, individual animals, read-out: Plasma concentration): 150 ng/mL; concentration at 4 h ([1]; CD-1, mouse, plasma, iv, 1 mg/kg, 4 h, individual animals, read-out: Plasma concentration): 96.4 ng/mL; concentration at 8 h ([1]; CD-1, mouse, plasma, iv, 1 mg/kg, 8 h, individual animals, read-out: Plasma concentration): 48.8 ng/mL; Brain concentration [1, 5]: 540.75 ng/g and 549.95 ng/g; Plasma concentration [1, 5]: 400.55 ng/mL and 416.19 ng/mL; Ratio (Brain/Plasma) [1, 5]: 1.35 and 1.32; Brain concentration [1, 6]: 489.60 ng/g and 371.38 ng/g; Plasma concentration [1, 6]: 382.24 ng/mL and 384.54 ng/mL; Ratio (Brain/Plasma) [1, 6]: 1.35 and 0.97; Brain concentration [1, 7]: 188.68 ng/g and 169.85 ng/g; Plasma concentration [1, 7]: 238.84 ng/mL and 249.07 ng/mL; Ratio (Brain/Plasma) [1, 7]: 0.79 and 0.68; Brain concentration [1, 8]: 94.27 ng/g and 77.50 ng/g; Plasma concentration [1, 8]: 134.42 ng/mL and 131.84 ng/mL; Ratio (Brain/Plasma) [1, 8]: 0.70 and 0.59; Brain concentration [1, 9]: 68.47 ng/g and 42.73 ng/g; Plasma concentration [1, 9]: 74.91 ng/mL and 63.17 ng/mL; Ratio (Brain/Plasma) [1, 9]: 0.91 and 0.88; Brain concentration [1, 10]: 21.85 ng/g and 18.85 ng/g; Plasma concentration [1, 10]: 49.05 ng/mL and 29.91 ng/mL; Ratio (Brain/Plasma) [1, 10]: 0.45 and 0.83; AUCInf [1, 11]: 872.43 ng·h/g; AUClast [1, 11]: 785.85 ng·h/g; Cl_obs [1, 12]: 13.85 mL/min/kg; Vss_obs [1, 12]: 3.63 L/kg; Tumor volume ([2]; Day 7): 144.35 mm^3; Tumor volume ([2]; Day 10): 183.15 mm^3; Tumor volume ([2]; Day 14): 198.80 mm^3; Tumor volume ([2]; Day 17): 228.87 mm^3; Tumor volume ([2]; Day 21): 253.30 mm^3; Tumor volume ([2]; Day 24): 310.83 mm^3; Tumor volume ([2]; Day 28): 279.31 mm^3; Tumor volume ([2]; Day 31): 337.78 mm^3; Tumor volume ([2]; Day 35): 452.75 mm^3; Relative tumor volume (x ± S) ([2]; 5 mg/kg, QWx3, i.v., Day 31): 2.45 ± 0.29
